Source: US20090170897A1, “Method of Treating Neuropathic Pain” (Pfizer, Inc., priority 2004, published 2009)

Tests used:
[1] = system: CCI-induced pain in rats; conditions: literature; cited from earlier work
[2] = system: Streptozocin (STZ)-induced diabetes neuropathy in the rat; test: STZ-induced static allodynia (von Frey hairs, PWT); format: in vivo; conditions: compound 25 mg/kg PO; gabapentin 100 mg/kg PO (positive control)
Procedure: (§1) Male Sprague Dawley rats weighing 150-400 g obtained from Charles River (Manston, Kent, UK.) were housed in groups of 3. All animals were kept under a 12 h light/dark cycle (lights on at 07 h 00 min) with food and water ad libitum. All experiments were carried out by an observer blind to the treatments and in accordance with the Home Office Animals (Scientific Procedures) Act 1986.
(§2) Diabetes was induced by a single intraperitoneal injection of streptozotocin (50 mg/kg) freshly dissolved in 0.9% sterile saline. Streptozotocin injection induces a reproducible mechanical allodynia within 3 weeks, lasting for at least 7 weeks (Chen and Pan, (Chen S R and Pan H L. Hypersensitivity of Spinothalamic Tract Neurons Associated With Diabetic Neuropathic Pain in Rats. J Neurophysiol 87: 2726-2733, 2002).
Animals were habituated to wire bottom test cages prior to the assessment of allodynia. Static allodynia was evaluated by application of von Frey hairs (Stoelting, Wood Dale, Ill., USA.) in ascending order of force (0.6, 1, 1.4, 2, 4, 6, 8, 10, 15 and 26 grams) to the plantar surface of hind paws. Each von Frey hair was applied to the paw for a maximum of 6 sec, or until a withdrawal response occurred. Once a withdrawal response to a von Frey hair was established, the paw was re-tested, starting with the filament below the one that produced a withdrawal, and subsequently with the remaining filaments in descending force sequence until no withdrawal occurred. The highest force of 26 g lifted the paw as well as eliciting a response, thus represented the cut off point. Each animal had both hind paws tested in this manner. The lowest amount of force required to elicit a response was recorded as paw withdrawal threshold (PWT) in grams. Static allodynia was defined as present if animals responded to a stimulus of, or less than, 4 g, which is innocuous in naive rats (Field M J, Bramwell S, Hughes J, Singh L. Detection of static and dynamic components of mechanical allodynia in rat models of neuropathic pain: are they signalled by distinct primary sensory neurones? Pain, 1999; 83:303-11).
(§3) All the experiments were conducted blind. Static allodynia was expressed as median [LQ; UQ] and analysed by Mann Whitney U test. Dynamic allodynia and thermal hyperalgesia were expressed as arithmetic mean±SEM and analysed by ANOVA.

[3] = system: Streptozocin (STZ)-induced diabetes neuropathy in the rat; test: STZ-induced dynamic allodynia (cotton bud, PWL); format: in vivo; conditions: compound 25 mg/kg PO; gabapentin 100 mg/kg PO (positive control)
Procedure: as §1, §2
Dynamic allodynia was assessed by lightly stroking the plantar surface of the hind paw with a cotton bud. To avoid recording general motor activity, care was taken to perform this procedure in fully habituated rats that were not active. At least two measurements were taken at each time point, the mean of which represented the paw withdrawal latency (PWL). […] A pain withdrawal response was often accompanied with repeated flinching or licking of the paw. Dynamic allodynia was considered to be present if animals responded to the cotton stimulus within 8 sec of commencing stroking (Field et al, 1999).
as §3

[4] = system: Chronic Constriction Injury (CCI) rat model of neuropathic pain; conditions: literature; cited from earlier work
[5] = system: Chronic Constriction Injury (CCI) rat model of neuropathic pain; conditions: literature; cited from earlier work; remark: listed apart in the source
[6] = system: Streptozocin (STZ)-induced diabetes neuropathy in the rat; conditions: literature; cited from earlier work
[7] = system: Streptozocin (STZ)-induced diabetes neuropathy in the rat; conditions: literature; cited from earlier work; remark: listed apart in the source
[8] = system: Carrageenan-induced thermal hyperalgesia (CITH) in the rat; test: Carrageenan-induced thermal hyperalgesia (CITH), rat plantar test; format: in vivo; conditions: 3 mg/kg SC
Procedure: as §1
Thermal hyperalgesia was assessed using the rat plantar test (Ugo Basile, Comerio, Italy), according to a method modified by Hargreaves et al. (1988). Briefly, rats were habituated to the apparatus that consisted of three individual Perspex boxes on a glass table. A mobile radiant heat source was located under the table and focused onto the desired paw. Paw withdrawal latencies (PWLs) were recorded three times for both hind paws of each animal, the mean of which represented baseline for left and right hind paws. The apparatus was calibrated to give a PWL of approximately 10 s in naïve rats. To prevent tissue damage of the plantar zone, a 22.5 sec cut-off was observed. Lambda carrageenan was injected intraplantarly (100 μl, 20 mg/ml) the right hind paw and baseline recordings of PWT were taken 2 hr post administration.
as §3

[9] = molecular target: T1, CRTH2 receptor (Homo sapiens, UniProt Q9Y5Y4); test: calcium mobilization in cells that express CRTH2 receptor; format: cell-based; conditions: absence of test compound, Indo-1 fluorescence; read-out: EC50 of increased [Ca2+]i
T1 construct: Flag peptide (behind a 'prolac' signal peptide) (N); expressed in transfected cells
T1 sequence (Q9Y5Y4 1-395): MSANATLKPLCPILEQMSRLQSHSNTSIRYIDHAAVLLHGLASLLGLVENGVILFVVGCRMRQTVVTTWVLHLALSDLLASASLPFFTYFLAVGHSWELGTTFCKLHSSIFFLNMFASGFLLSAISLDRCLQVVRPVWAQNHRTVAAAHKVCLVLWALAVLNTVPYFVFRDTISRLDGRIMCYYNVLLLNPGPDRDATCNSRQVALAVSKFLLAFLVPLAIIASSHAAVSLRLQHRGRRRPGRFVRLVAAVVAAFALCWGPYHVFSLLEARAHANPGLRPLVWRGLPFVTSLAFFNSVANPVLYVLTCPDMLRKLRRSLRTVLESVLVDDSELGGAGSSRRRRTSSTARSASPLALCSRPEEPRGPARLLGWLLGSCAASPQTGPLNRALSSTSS
Procedure: The ratio of fluorescence produced by the calcium-bound dye to that produce by the unbound dye is used to estimate the intracellular calcium concentration. In an example method cells that express CRTH2 receptor are collected, and resuspended in fresh media at ˜2×10^5/ml the day before performing the calcium flux assay. Cells are incubated at 37° C. for not longer than 20-30 minutes, and then spun down and resuspended in 50 ml fresh PTI buffer (Hank's Buffer, pH 7.2-7.4; 10 mM Hepes; 1.6 mM CaCl2) containing Indo-1 AM, pre-warmed to 37° C., at a concentration of 10 million per ml. Cells are excited, and fluorescence is measured using a fluorimeter (Photon Technology Corporation, International). After the readout has stabilized, the time axis is reset, and PGD2 is added at a specific time point (e.g., 20 seconds). After response, the following reagents are added to the cuvette, to release and chelate total calcium, in the following order: 20 μl of 18% Triton X-100, 20 μl of 3M Tris, pH 8.5, and 20 μl of 0.5M EGTA, pH 8.5. The experiment is repeated in the presence and the absence of a test compound. […] Therefore, in the presence of an antagonist test compound, the EC50 would be expected to […].

Row | SMILES | reversal of CCI-induced pain in rats (Schäfers 2004) [1] | static allodynia in CCI rat model (Field et al 1999) [4] | dynamic allodynia in CCI rat model (Field et al 1999) [5] | static allodynia in STZ rat model (Field et al 1999) [6] | dynamic allodynia in STZ rat model (Field et al 1999) [7] | further results
1 | Cc1ccc(-c2cc(C(F)(F)F)nn2-c2ccc(S(N)(=O)=O)cc2)cc1 [Celebrex] | no significant effect | – | – | – | – | –
2 | NCC1(CC(=O)O)CCCCC1 [Gabapentin] | – | reverse both static and dynamic allodynia | reverse both static and dynamic allodynia | reverse both static and dynamic allodynia | reverse both static and dynamic allodynia | effect on maintenance of STZ-induced static allodynia [2]: complete reversal; effect on maintenance of STZ-induced dynamic allodynia [3]: complete reversal
3 | CC(C)Cc1ccc(C(C)C(=O)O)cc1 (centres unmarked) [Ibuprofen] | no significant effect | – | – | – | – | –
4 | CN1CC[C@]23c4c5ccc(O)c4O[C@H]2[C@@H](O)C=C[C@H]3[C@H]1C5 [Morphine, reference compound] | – | reverses static | not dynamic allodynia | – | – | analgesic effect of positive control [8]: produced the expected analgesic effect; change of PWLs in both hindpaws ([8]; 30 min post dose): increased the PWLs in both hindpaws over the baseline value of naïve rats
5 | CCCCC[C@H](O)/C=C/[C@H]1C(=O)C[C@H](O)[C@@H]1C/C=C\CCCC(=O)O [PGD2, Prostaglandin D2] | – | – | – | – | – | EC50 [9]: 15 nM
6 | CC(C)C[C@H](CN)CC(=O)O [Pregabalin] | – | reverse both static and dynamic allodynia | reverse both static and dynamic allodynia | reverse both static and dynamic allodynia | reverse both static and dynamic allodynia | –
